Test results: the supplement of paper PMC10307832

How the values were obtained:
Assay in all cases: relative viability (nuclei count vs DMSO), 5 days (fraction); higher = more cells survive
NCI-H1792 = tested on: NCI-H1792
Summary of the method: (§1)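 Lung cancer cell lines were pin-tool dosed in 1536-well plates on the day after seeding, with either a lone drug or a fixed anchor-drug dose plus five library-drug doses (not always all listed) in √10 steps. Nuclei were counted on 4× images after 5 days. Relative viability is the ratio of treated-well to vehicle-well nuclei counts, with each value a median of duplicate plates.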

HCC-827 = tested on: HCC-827
Summary of the method: as §1

COR-L 105 = tested on: COR-L 105
Summary of the method: as §1

NCI-H2009 = tested on: NCI-H2009
Summary of the method: as §1

CAL-12T = tested on: CAL-12T
Summary of the method: as §1

NCI-H2405 = tested on: NCI-H2405
Summary of the method: as §1

NCI-H2228 = tested on: NCI-H2228
Summary of the method: as §1

NCI-H1651 = tested on: NCI-H1651
Summary of the method: as §1

NCI-H1395 = tested on: NCI-H1395
Summary of the method: as §1

LCLC-97TM1 = tested on: LCLC-97TM1
Summary of the method: as §1

H3255 = tested on: H3255
Summary of the method: as §1

NCI-H23 = tested on: NCI-H23
Summary of the method: as §1

UMC-11 = tested on: UMC-11
Summary of the method: as §1

NCI-H650 = tested on: NCI-H650
Summary of the method: as §1

PC-3 [JPC-3] = tested on: PC-3 [JPC-3]
Summary of the method: as §1

SK-MES-1 = tested on: SK-MES-1
Summary of the method: as §1

LU99A = tested on: LU99A
Summary of the method: as §1

NCI-H2170 = tested on: NCI-H2170
Summary of the method: as §1

NCI-H661 = tested on: NCI-H661
Summary of the method: as §1

NCI-H2087 = tested on: NCI-H2087
Summary of the method: as §1

HARA = tested on: HARA
Summary of the method: as §1

HCC-15 = tested on: HCC-15
Summary of the method: as §1

201T = tested on: 201T
Summary of the method: as §1

C=C1C(=O)O[C@@H](CCCCCCCC)[C@@H]1C(=O)O [C-75] + Cc1nc(Nc2ncc(C(=O)Nc3c(C)cccc3Cl)s2)cc(N2CCN(CCO)CC2)n1 [Dasatinib] (partner 0.075 µM)
relative viability (NCI-H1792; first compound 0.08 µM): 0.788
relative viability (NCI-H1792; first compound 0.253 µM): 0.623
relative viability (NCI-H1792; first compound 0.8 µM): 0.724
relative viability (NCI-H1792; first compound 2.53 µM): 0.503
relative viability (NCI-H1792; first compound 8 µM): 0.692
relative viability (HCC-827; first compound 0.08 µM): 0.28
relative viability (HCC-827; first compound 0.253 µM): 0.356
relative viability (HCC-827; first compound 0.8 µM): 0.301
relative viability (HCC-827; first compound 2.53 µM): 0.221
relative viability (HCC-827; first compound 8 µM): 0.347
relative viability (COR-L 105; first compound 0.08 µM): 0.401
relative viability (COR-L 105; first compound 0.253 µM): 0.243
relative viability (COR-L 105; first compound 0.8 µM): 0.358
relative viability (COR-L 105; first compound 2.53 µM): 0.338
relative viability (COR-L 105; first compound 8 µM): 0.303
relative viability (NCI-H2009; first compound 0.08 µM): 0.303
relative viability (NCI-H2009; first compound 0.253 µM): 0.219
relative viability (NCI-H2009; first compound 0.8 µM): 0.281
relative viability (NCI-H2009; first compound 2.53 µM): 0.228
relative viability (NCI-H2009; first compound 8 µM): 0.203
relative viability (CAL-12T; first compound 0.08 µM): 0.391
relative viability (CAL-12T; first compound 0.253 µM): 0.393
relative viability (CAL-12T; first compound 0.8 µM): 0.432
relative viability (CAL-12T; first compound 2.53 µM): 0.317
relative viability (CAL-12T; first compound 8 µM): 0.303
relative viability (NCI-H2405; first compound 0.08 µM): 0.196
relative viability (NCI-H2405; first compound 0.253 µM): 0.191
relative viability (NCI-H2405; first compound 0.8 µM): 0.188
relative viability (NCI-H2405; first compound 2.53 µM): 0.216
relative viability (NCI-H2405; first compound 8 µM): 0.22
relative viability (NCI-H2228; first compound 0.08 µM): 0.613
relative viability (NCI-H2228; first compound 0.253 µM): 0.627
relative viability (NCI-H2228; first compound 0.8 µM): 0.524
relative viability (NCI-H2228; first compound 2.53 µM): 0.394
relative viability (NCI-H2228; first compound 8 µM): 0.396
relative viability (NCI-H1651; first compound 0.08 µM): 0.484
relative viability (NCI-H1651; first compound 0.253 µM): 0.339
relative viability (NCI-H1651; first compound 0.8 µM): 0.364
relative viability (NCI-H1651; first compound 2.53 µM): 0.362
relative viability (NCI-H1651; first compound 8 µM): 0.413
relative viability (NCI-H1395; first compound 0.08 µM): 0.396
relative viability (NCI-H1395; first compound 0.253 µM): 0.388
relative viability (NCI-H1395; first compound 0.8 µM): 0.42
relative viability (NCI-H1395; first compound 2.53 µM): 0.407
relative viability (NCI-H1395; first compound 8 µM): 0.477
relative viability (LCLC-97TM1; first compound 0.08 µM): 0.799
relative viability (LCLC-97TM1; first compound 0.253 µM): 0.807
relative viability (LCLC-97TM1; first compound 0.8 µM): 0.883
relative viability (LCLC-97TM1; first compound 2.53 µM): 0.704
relative viability (LCLC-97TM1; first compound 8 µM): 0.874
relative viability (H3255; first compound 0.08 µM): 0.382
relative viability (H3255; first compound 0.253 µM): 0.371
relative viability (H3255; first compound 0.8 µM): 0.337
relative viability (H3255; first compound 2.53 µM): 0.327
relative viability (H3255; first compound 8 µM): 0.437
relative viability (NCI-H23; first compound 0.08 µM): 0.81
relative viability (NCI-H23; first compound 0.253 µM): 0.756
relative viability (NCI-H23; first compound 0.8 µM): 0.718
relative viability (NCI-H23; first compound 2.53 µM): 0.443
relative viability (NCI-H23; first compound 8 µM): 0.586
relative viability (UMC-11; first compound 0.08 µM): 0.43
relative viability (UMC-11; first compound 0.253 µM): 0.547
relative viability (UMC-11; first compound 0.8 µM): 0.389
relative viability (UMC-11; first compound 2.53 µM): 0.433
relative viability (UMC-11; first compound 8 µM): 0.376
relative viability (NCI-H650; first compound 0.08 µM): 0.469
relative viability (NCI-H650; first compound 0.253 µM): 0.328
relative viability (NCI-H650; first compound 0.8 µM): 0.383
relative viability (NCI-H650; first compound 2.53 µM): 0.358
relative viability (NCI-H650; first compound 8 µM): 0.398
relative viability (PC-3 [JPC-3]; first compound 0.08 µM): 1.01
relative viability (PC-3 [JPC-3]; first compound 0.253 µM): 0.994
relative viability (PC-3 [JPC-3]; first compound 0.8 µM): 1.01
relative viability (PC-3 [JPC-3]; first compound 2.53 µM): 0.937
relative viability (PC-3 [JPC-3]; first compound 8 µM): 1
relative viability (SK-MES-1; first compound 0.08 µM): 0.357
relative viability (SK-MES-1; first compound 0.253 µM): 0.286
relative viability (SK-MES-1; first compound 0.8 µM): 0.319
relative viability (SK-MES-1; first compound 2.53 µM): 0.332
relative viability (SK-MES-1; first compound 8 µM): 0.336
relative viability (LU99A; first compound 0.08 µM): 0.597
relative viability (LU99A; first compound 0.253 µM): 0.558
relative viability (LU99A; first compound 0.8 µM): 0.549
relative viability (LU99A; first compound 2.53 µM): 0.495
relative viability (LU99A; first compound 8 µM): 0.38
relative viability (NCI-H2170; first compound 0.08 µM): 0.692
relative viability (NCI-H2170; first compound 0.253 µM): 0.552
relative viability (NCI-H2170; first compound 0.8 µM): 0.552
relative viability (NCI-H2170; first compound 2.53 µM): 0.476
relative viability (NCI-H2170; first compound 8 µM): 0.522
relative viability (NCI-H661; first compound 0.08 µM): 0.839
relative viability (NCI-H661; first compound 0.253 µM): 0.795
relative viability (NCI-H661; first compound 0.8 µM): 0.857
relative viability (NCI-H661; first compound 2.53 µM): 0.856
relative viability (NCI-H661; first compound 8 µM): 0.746
relative viability (NCI-H2087; first compound 0.08 µM): 0.88
relative viability (NCI-H2087; first compound 0.253 µM): 1.06
relative viability (NCI-H2087; first compound 0.8 µM): 0.66
relative viability (NCI-H2087; first compound 2.53 µM): 0.829
relative viability (NCI-H2087; first compound 8 µM): 0.865
relative viability (HARA; first compound 0.08 µM): 0.257
relative viability (HARA; first compound 0.253 µM): 0.241
relative viability (HARA; first compound 0.8 µM): 0.239
relative viability (HARA; first compound 2.53 µM): 0.178
relative viability (HARA; first compound 8 µM): 0.298
relative viability (HCC-15; first compound 0.08 µM): 0.644
relative viability (HCC-15; first compound 0.253 µM): 0.571
relative viability (HCC-15; first compound 0.8 µM): 0.602
relative viability (HCC-15; first compound 2.53 µM): 0.498
relative viability (HCC-15; first compound 8 µM): 0.528
relative viability (201T; first compound 0.08 µM): 0.612
relative viability (201T; first compound 0.253 µM): 0.707
relative viability (201T; first compound 0.8 µM): 0.568
relative viability (201T; first compound 2.53 µM): 0.511
relative viability (201T; first compound 8 µM): 0.56
